Here are results for three compounds from publication PMC9853328, “Potent Platinum(IV) Prodrugs That Incorporate a Biotin Moiety to Selectively Target Cancer Cells” (Pharmaceutics, 2022).

Structures are written as SMILES.

The first experiment concerns A431 skin cancer cells.
Test: not given
Conditions: MTT, same method, taken from the literature; ref [18],[46],[47]; read-out: GI50 ± SEM, A431; cited from earlier work. Details: method as in earlier work.
What is called GI50 is the concentration that inhibits growth by half. On to `Cc1c(C)c2ccc[n+]3c2c2c1ccc[n+]2[Pt-2]31[NH2+][C@H]2CCCC[C@@H]2[NH2+]1.[Cl-].[Cl-]` [56MESS(II)], for which the GI50 is 36 ± 11 nM.

For the compound `Cc1c(C)c2ccc[n+]3c2c2c1ccc[n+]2[Pt-2]31([OH])([OH])[NH2+][C@H]2CCCC[C@@H]2[NH2+]1.O=[N+]([O-])[O-].O=[N+]([O-])[O-]` [56MESS(IV)], the GI50 is 120 ± 22 nM.

Take `N.N.O=C([O-])C1(C(=O)[O-])CCC1.[Pt+2]` [Carboplatin, carboplatin]: the GI50 is 24300 ± 2200 nM.

The next experiment deals with ADDP (subclone of A2780) versus A2780 ovarian cancer cell lines. Nature of the experiment: Resistance factor, GI50 in ADDP/GI50 in A2780. Type of experiment: cell-based.
Conditions: not given
In the case of `Cc1c(C)c2ccc[n+]3c2c2c1ccc[n+]2[Pt-2]31[NH2+][C@H]2CCCC[C@@H]2[NH2+]1.[Cl-].[Cl-]` [56MESS(II)], the “Resistance factor (RF)” value worked out at 0.692.

As to `Cc1c(C)c2ccc[n+]3c2c2c1ccc[n+]2[Pt-2]31([OH])([OH])[NH2+][C@H]2CCCC[C@@H]2[NH2+]1.O=[N+]([O-])[O-].O=[N+]([O-])[O-]` [56MESS(IV)], the “Resistance factor (RF)” value came out at 3.036.

Another experiment deals with MCF-7 breast cancer cells.
Test: not given
The note with it: MTT, same method, taken from the literature; ref [18],[46],[47]; read-out: GI50 ± SEM, MCF-7; cited from earlier work. Further details: method as in earlier work.
As to `Cc1c(C)c2ccc[n+]3c2c2c1ccc[n+]2[Pt-2]31[NH2+][C@H]2CCCC[C@@H]2[NH2+]1.[Cl-].[Cl-]` [56MESS(II)], the GI50 is 33 ± 12 nM.

In the case of `Cc1c(C)c2ccc[n+]3c2c2c1ccc[n+]2[Pt-2]31([OH])([OH])[NH2+][C@H]2CCCC[C@@H]2[NH2+]1.O=[N+]([O-])[O-].O=[N+]([O-])[O-]` [56MESS(IV)], the concentration for 50% growth inhibition (GI50) was 480 ± 140 nM.

Regarding `N.N.O=C([O-])C1(C(=O)[O-])CCC1.[Pt+2]` [Carboplatin, carboplatin], the GI50 was over 50000 nM.

Another experiment deals with cisplatin-resistant ADDP ovarian (subclone of A2780) cancer cells.
Test: not given
Further details: method as in earlier work. The note with it: MTT, same method, taken from the literature; ref [18],[46],[47]; read-out: GI50 ± SEM, ADDP; cited from earlier work.
For the compound `Cc1c(C)c2ccc[n+]3c2c2c1ccc[n+]2[Pt-2]31[NH2+][C@H]2CCCC[C@@H]2[NH2+]1.[Cl-].[Cl-]` [56MESS(II)], the GI50 was 27 ± 4.1 nM.

`Cc1c(C)c2ccc[n+]3c2c2c1ccc[n+]2[Pt-2]31([OH])([OH])[NH2+][C@H]2CCCC[C@@H]2[NH2+]1.O=[N+]([O-])[O-].O=[N+]([O-])[O-]` [56MESS(IV)]: the GI50 was 170 ± 120 nM.

On to `N.N.O=C([O-])C1(C(=O)[O-])CCC1.[Pt+2]` [Carboplatin, carboplatin], for which the GI50 is over 50000 nM.

The next experiment relates to A2780 ovarian cancer cells.
Test: not given
Details: method as in earlier work. The note with it: MTT, same method, taken from the literature; ref [18],[46],[47]; read-out: GI50 ± SEM, A2780; cited from earlier work.
As for `Cc1c(C)c2ccc[n+]3c2c2c1ccc[n+]2[Pt-2]31[NH2+][C@H]2CCCC[C@@H]2[NH2+]1.[Cl-].[Cl-]` [56MESS(II)], the GI50 was 39 ± 7.7 nM.

`Cc1c(C)c2ccc[n+]3c2c2c1ccc[n+]2[Pt-2]31([OH])([OH])[NH2+][C@H]2CCCC[C@@H]2[NH2+]1.O=[N+]([O-])[O-].O=[N+]([O-])[O-]` [56MESS(IV)]: the GI50 was 56 ± 7.1 nM.

Turning to `N.N.O=C([O-])C1(C(=O)[O-])CCC1.[Pt+2]` [Carboplatin, carboplatin], the GI50 is 9200 ± 2900 nM.

For the next experiment, the system named is non-cancerous MCF10A breast cell line.
Test: not given
Details: method as in earlier work. The note with it: MTT, same method, taken from the literature; ref [18],[46],[47]; read-out: GI50 ± SEM, MCF10A; cited from earlier work.
For the compound `Cc1c(C)c2ccc[n+]3c2c2c1ccc[n+]2[Pt-2]31[NH2+][C@H]2CCCC[C@@H]2[NH2+]1.[Cl-].[Cl-]` [56MESS(II)], the GI50 is 25 ± 10 nM.

As for `Cc1c(C)c2ccc[n+]3c2c2c1ccc[n+]2[Pt-2]31([OH])([OH])[NH2+][C@H]2CCCC[C@@H]2[NH2+]1.O=[N+]([O-])[O-].O=[N+]([O-])[O-]` [56MESS(IV)], the GI50 was 61 ± 7.3 nM.

Regarding `N.N.O=C([O-])C1(C(=O)[O-])CCC1.[Pt+2]` [Carboplatin, carboplatin], the GI50 is over 50000 nM.

The test system of a further experiment is MIA pancreas cancer cells.
Test: not given
Further details: method as in earlier work. Conditions: MTT, same method, taken from the literature; ref [18],[46],[47]; read-out: GI50 ± SEM, MIA; cited from earlier work.
Take `Cc1c(C)c2ccc[n+]3c2c2c1ccc[n+]2[Pt-2]31[NH2+][C@H]2CCCC[C@@H]2[NH2+]1.[Cl-].[Cl-]` [56MESS(II)]: the GI50 was 22 ± 0.88 nM.

Consider `Cc1c(C)c2ccc[n+]3c2c2c1ccc[n+]2[Pt-2]31([OH])([OH])[NH2+][C@H]2CCCC[C@@H]2[NH2+]1.O=[N+]([O-])[O-].O=[N+]([O-])[O-]` [56MESS(IV)], for which the GI50 is 43 ± 2.5 nM.

In the case of `N.N.O=C([O-])C1(C(=O)[O-])CCC1.[Pt+2]` [Carboplatin, carboplatin], the 50% growth inhibitory concentration (GI50) is over 50000 nM.

The test system of another experiment is H460 lung cancer cells.
Test: not given
The note with it: MTT, same method, taken from the literature; ref [18],[46],[47]; read-out: GI50 ± SEM, H460; cited from earlier work. Further details: method as in earlier work.
Turning to `Cc1c(C)c2ccc[n+]3c2c2c1ccc[n+]2[Pt-2]31[NH2+][C@H]2CCCC[C@@H]2[NH2+]1.[Cl-].[Cl-]` [56MESS(II)], the GI50 is 28 ± 4.7 nM.

For `Cc1c(C)c2ccc[n+]3c2c2c1ccc[n+]2[Pt-2]31([OH])([OH])[NH2+][C@H]2CCCC[C@@H]2[NH2+]1.O=[N+]([O-])[O-].O=[N+]([O-])[O-]` [56MESS(IV)], the GI50 is 190 ± 150 nM.

Regarding `N.N.O=C([O-])C1(C(=O)[O-])CCC1.[Pt+2]` [Carboplatin, carboplatin], the GI50 is 14000 ± 1000 nM.

The next experiment has as its system SJ-G2 glioblastoma cells.
Test: not given
The note with it: MTT, same method, taken from the literature; ref [18],[46],[47]; read-out: GI50 ± SEM, SJ-G2; cited from earlier work. Further details: method as in earlier work.
`Cc1c(C)c2ccc[n+]3c2c2c1ccc[n+]2[Pt-2]31[NH2+][C@H]2CCCC[C@@H]2[NH2+]1.[Cl-].[Cl-]` [56MESS(II)]: the GI50 was 150 ± 6.7 nM.

On to `Cc1c(C)c2ccc[n+]3c2c2c1ccc[n+]2[Pt-2]31([OH])([OH])[NH2+][C@H]2CCCC[C@@H]2[NH2+]1.O=[N+]([O-])[O-].O=[N+]([O-])[O-]` [56MESS(IV)], for which the concentration for 50% growth inhibition (GI50) is 210 ± 45 nM.

As to `N.N.O=C([O-])C1(C(=O)[O-])CCC1.[Pt+2]` [Carboplatin, carboplatin], the GI50 was 5700 ± 200 nM.

A further experiment relates to HT29 colon cancer cells.
Test: not given
Further details: method as in earlier work. The note with it: MTT, same method, taken from the literature; ref [18],[46],[47]; read-out: GI50 ± SEM, HT29; cited from earlier work.
Consider `Cc1c(C)c2ccc[n+]3c2c2c1ccc[n+]2[Pt-2]31[NH2+][C@H]2CCCC[C@@H]2[NH2+]1.[Cl-].[Cl-]` [56MESS(II)], for which the GI50 is 15 ± 6.2 nM.

Take `Cc1c(C)c2ccc[n+]3c2c2c1ccc[n+]2[Pt-2]31([OH])([OH])[NH2+][C@H]2CCCC[C@@H]2[NH2+]1.O=[N+]([O-])[O-].O=[N+]([O-])[O-]` [56MESS(IV)]: the GI50 is 36 ± 7.1 nM.

As to `N.N.O=C([O-])C1(C(=O)[O-])CCC1.[Pt+2]` [Carboplatin, carboplatin], the GI50 was over 50000 nM.

For a further experiment, the system named is Du145 prostate cancer cells.
Test: not given
Further details: method as in earlier work. Conditions: MTT, same method, taken from the literature; ref [18],[46],[47]; read-out: GI50 ± SEM, Du145; cited from earlier work.
For the compound `Cc1c(C)c2ccc[n+]3c2c2c1ccc[n+]2[Pt-2]31[NH2+][C@H]2CCCC[C@@H]2[NH2+]1.[Cl-].[Cl-]` [56MESS(II)], the GI50 is 10 ± 1.3 nM.

In the case of `Cc1c(C)c2ccc[n+]3c2c2c1ccc[n+]2[Pt-2]31([OH])([OH])[NH2+][C@H]2CCCC[C@@H]2[NH2+]1.O=[N+]([O-])[O-].O=[N+]([O-])[O-]` [56MESS(IV)], the GI50 is 15 ± 2.6 nM.

As to `N.N.O=C([O-])C1(C(=O)[O-])CCC1.[Pt+2]` [Carboplatin, carboplatin], the GI50 was 14700 ± 1200 nM.

The test system of another experiment is BE2-C neuroblastoma cells.
Test: not given
Further details: method as in earlier work. The note with it: MTT, same method, taken from the literature; ref [18],[46],[47]; read-out: GI50 ± SEM, BE2-C; cited from earlier work.
In the case of `Cc1c(C)c2ccc[n+]3c2c2c1ccc[n+]2[Pt-2]31[NH2+][C@H]2CCCC[C@@H]2[NH2+]1.[Cl-].[Cl-]` [56MESS(II)], the GI50 was 86 ± 3 nM.

With `Cc1c(C)c2ccc[n+]3c2c2c1ccc[n+]2[Pt-2]31([OH])([OH])[NH2+][C@H]2CCCC[C@@H]2[NH2+]1.O=[N+]([O-])[O-].O=[N+]([O-])[O-]` [56MESS(IV)], the GI50 was 240 ± 22 nM.

Consider `N.N.O=C([O-])C1(C(=O)[O-])CCC1.[Pt+2]` [Carboplatin, carboplatin], for which the GI50 is 18700 ± 1200 nM.

The next experiment concerns U87 glioblastoma cells.
Test: not given
Conditions: MTT, same method, taken from the literature; ref [18],[46],[47]; read-out: GI50 ± SEM, U87; cited from earlier work. Further details: method as in earlier work.
In the case of `Cc1c(C)c2ccc[n+]3c2c2c1ccc[n+]2[Pt-2]31[NH2+][C@H]2CCCC[C@@H]2[NH2+]1.[Cl-].[Cl-]` [56MESS(II)], the GI50 was 76 ± 8.7 nM.

For the compound `Cc1c(C)c2ccc[n+]3c2c2c1ccc[n+]2[Pt-2]31([OH])([OH])[NH2+][C@H]2CCCC[C@@H]2[NH2+]1.O=[N+]([O-])[O-].O=[N+]([O-])[O-]` [56MESS(IV)], the GI50 was 190 ± 23 nM.

Take `N.N.O=C([O-])C1(C(=O)[O-])CCC1.[Pt+2]` [Carboplatin, carboplatin]: the GI50 is over 50000 nM.
